Results as given in patent publication US11376302B2, “Methods for treating depression and major depressive disorder” (priority 2017, dated 2022).
Entries after “also recorded” stand apart in the source; their conditions may differ.

How the values were obtained:
[1] = test system: global protein synthesis in the hippocampus; experiment: SUnSET measurement of global protein synthesis in brain tissue after injection; assay type: in vivo, mouse
Method: Protein synthesis was measured by the SUnSET method. After pharmacological manipulation, mice were sacrificed by cervical dislocation, brains were removed, and the hippocampi were rapidly dissected, immersed in liquid nitrogen, and stored at −80° C. until further use. Hippocampi were homogenized using 20 strokes of a pre-chilled glass homogenizer with 600 μl of lysis buffer containing 50 mM Tris, pH 7.8, 240 mM KCl, 10 mM MgCl2, 250 mM D-sucrose, 2% Triton X-100, 20 μg/ml emetine, 5 mM DTT, 100 U/ml Rnasin (Promega), and protease inhibitor mixture without EDTA (Roche). Samples were centrifuged for 5 min at 16,100 g at 4° C. and supernatant was incubated with 100 g/ml puromycin for 10 min at 4° C. An equal volume of 2×SDS sample buffer (10% glycerol, 5% β-mercaptoethanol, 4% SDS, 120 mM Tris-HCl, pH 6.8) was added to the samples and then boiled for 10 min at 100° C. Protein concentrations were determined using the BCA protein assay (Thermo), and samples were stored at −20° C. until further use. Puromycin incorporation was detected by western blotting using 12D10 antibody for puromycin (1:1000, Millipore).

mice [2] = experiment: Forced swim test (FST); assay type: in vivo, mouse
Method: After receiving treatments mice were subjected to FST. Briefly, mice were introduced into a transparent glass beaker (26 cm×18 cm) containing 4 liters deep water at 24° C. and were video-recorded for 6 minutes. The last 4 min were scored for immobility. Total immobility time (in seconds) is shown in the results.

[3] = cited from earlier work
mice [4] = experiment: Tail suspension test (TST); assay type: in vivo, mouse; conditions: C57BL/6 mice, Tatcont then ketamine, test 24 hours later
Method: Custom made clear hollow cylinders (4 cm length, 1.2 cm inner diameter, 1 g) from polycarbonate tubing were placed around the tails of mice to prevent tail climbing behavior. Tape was adhered to the tails of mice on one end, and the other end of the tape was adhered to a custom designed chamber with a white background. Mice were video recorded for 6 minute and the entire 6 minute session was scored for immobility. Total immobility time (seconds) is shown in the results.

mice [5] = experiment: Novelty suppressed feeding (NSF) test; assay type: in vivo, mouse; conditions: C57BL/6 mice, ketamine injection
Method: Novelty Suppressed Feeding (NSF)
After receiving the treatments mice were subjected to NSF. Briefly, mice were food deprived for 14 h and then placed in a temporary home cage for 30 min. During the test, mice were placed in a square arena 50×50 cm with bright room light. A food pellet was placed in the center of an open field. Each trial was 10 min in duration. Animal behavior was recorded, and latency to feeding (s) was measured.

Row | Structure (SMILES) | protein synthesis ([1]; anisomycin 120 mg/kg b.w.) | ketamine-induced protein synthesis ([1]; anisomycin 120 mg/kg b.w. with ketamine) | immobility time in the FST (mice [2]; C57BL/6 mice, Tatcont then ketamine, test 24 hours later) | immobility time in the forced swim test (mice [2]; C57BL/6 mice, ketamine IP (5 mg per kg b.w. in Example 1), short-term test) | immobility time in the FST (mice [2]; WT littermates, 30 minutes after ketamine) | immobility time in FST (mice [2]; WT mice, 24 hours after ketamine injection) | immobility time in the FST (mice [2]; eEF2K-KO mice, 30 minutes after ketamine) | immobility time in FST (mice [2]; eEF2K-KO mice, 24 hours after injection) | immobility time in FST (mice [2]; ketamine 5 mg/kg b.w., FST 24 hours later, C57BL/6 mice) | immobility time in FST (mice [2]; ketamine 10 mg/kg b.w., FST 24 hours later, C57BL/6 mice) | persistence of antidepressant effect ([3]; human patients, single intravenous administration) | reduction of depression in human patients ([3]; single intravenous administration) | side effects of infusions in humans ([3]; single or repeated infusions, lasting a few minutes to hours) | immobility time in the TST (mice [4]) | latency to feeding in the novelty suppressed feeding test (mice [5])
1 | COc1ccc(C[C@H]2NC[C@H](O)[C@H]2OC(C)=O)cc1 [anisomycin] | blocked protein synthesis | blocked | – | – | – | – | – | – | – | – | – | – | – | – | –
2 | CNC1(c2ccccc2Cl)CCCCC1=O (stereo not drawn) [ketamine] | – | – | shorter immobility time | reduced the immobility time; also recorded: shorter immobility time | reduced the immobility time | reduced immobility time | no difference in immobility | no difference | shorter immobility time | shorter immobility time | persists for many hours to days | sufficient to reduce depression | acute dissociative and psychotomimetic effects | shorter immobility time | reduced the latency to feeding
